Measurements as given in paper PMC9133015 (Nature Communications, 2022).
Where “and” joins values, the source holds several entries; their conditions need not be identical. Equal values may be shown once. Read-outs that look alike come from different tables or passages of the source.

Target: T1, DYRK2 (Homo sapiens, UniProt Q92630)
T1 construct: purchased Reaction Biology Corporation (assay service)
T1 sequence (Q92630 1-601): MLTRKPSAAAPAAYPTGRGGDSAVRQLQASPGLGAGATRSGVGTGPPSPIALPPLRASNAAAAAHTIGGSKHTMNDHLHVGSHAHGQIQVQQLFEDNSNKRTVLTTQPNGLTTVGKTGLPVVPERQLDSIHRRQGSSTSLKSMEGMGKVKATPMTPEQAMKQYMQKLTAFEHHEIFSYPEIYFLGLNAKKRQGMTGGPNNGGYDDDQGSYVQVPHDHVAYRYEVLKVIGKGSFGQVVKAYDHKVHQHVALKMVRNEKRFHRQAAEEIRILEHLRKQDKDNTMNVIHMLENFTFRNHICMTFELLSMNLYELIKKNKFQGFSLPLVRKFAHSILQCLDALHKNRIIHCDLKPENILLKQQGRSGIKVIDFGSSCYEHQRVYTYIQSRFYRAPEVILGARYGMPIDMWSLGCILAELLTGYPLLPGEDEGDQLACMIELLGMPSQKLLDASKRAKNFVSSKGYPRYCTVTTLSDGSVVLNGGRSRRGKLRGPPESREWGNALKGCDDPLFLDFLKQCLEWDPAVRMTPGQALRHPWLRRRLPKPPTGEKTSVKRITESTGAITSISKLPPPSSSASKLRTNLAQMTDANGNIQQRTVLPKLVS
Test: DYRKs kinase activity assay (33P-ATP, DYRKtide substrate): DYRK2
Format: biochemical
Details: for DYRK2 inhibitory activity (in words): structural optimization of lead 12

[1] = DYRK2 kinase, Conc. 0.000508053 µM, duplicate values
[2] = DYRK2 kinase, Conc. 0.00152416 µM, duplicate values
[3] = DYRK2 kinase, Conc. 0.00457247 µM, duplicate values
[4] = DYRK2 kinase, Conc. 0.0137174 µM, duplicate values
[5] = DYRK2 kinase, Conc. 0.0137174 µM, duplicate values, read-out: % Inhibition
[6] = DYRK2 kinase, Conc. 0.0411523 µM, duplicate values
[7] = DYRK2 kinase, Conc. 0.0411523 µM, duplicate values, read-out: % Inhibition
[8] = DYRK2 kinase, Conc. 0.123457 µM, duplicate values
[9] = DYRK2 kinase, Conc. 0.123457 µM, duplicate values, read-out: % Inhibition
[10] = DYRK2 kinase, Conc. 0.37037 µM, duplicate values
[11] = DYRK2 kinase, Conc. 0.37037 µM, duplicate values, read-out: % Inhibition
[12] = DYRK2 kinase, Conc. 1.11111 µM, duplicate values
[13] = DYRK2 kinase, Conc. 1.11111 µM, duplicate values, read-out: % Inhibition
[14] = DYRK2 kinase, Conc. 3.33333 µM, duplicate values
[15] = DYRK2 kinase, Conc. 3.33333 µM, duplicate values, read-out: % Inhibition
[16] = DYRK2 kinase, Conc. 10 µM, duplicate values
[17] = DYRK2 kinase, Conc. 10 µM, duplicate values, read-out: % Inhibition
[18] = Supplementary Table 1, read-out: IC50 (μM), DYRK2 kinase
[19] = DYRK2 kinase, Conc. 0.00152416 µM, duplicate values, read-out: % Inhibition
[20] = DYRK2 kinase, Conc. 1.66667 µM, duplicate values

Structure (SMILES)	% Inhibition [1]	% Inhibition [2]	% Inhibition [3]	% Inhibition [4]	% Inhibition [6]	% Inhibition [8]	% Inhibition [10]	% Inhibition [12]	inhibition at 1.11111 µM [13] [%]	% Inhibition [14]	inhibition at 3.33333 µM [15] [%]	% Inhibition [16]	inhibition at 10 µM [17] [%]	DYRK2 inhibitory activity (in words)	IC50 [18] [µM]	other results
CC(C)(C)OC(=O)N1CCN(Cc2ccc(Nc3ncc(F)c(-c4ccc5ncsc5c4)n3)nc2)CC1 [Compound 17]	-1.98% and -2.03%	-0.44% and -0.45%	-0.11% and -0.23%	0.54%	9.25%	18.48%	37.11%	48.09%	47	58.92%	57.6	60.62%	59.4	significantly decreased activity	–	inhibition at 0.0137174 µM [5]: 0.53%; inhibition at 0.0411523 µM [7]: 8.33%; inhibition at 0.123457 µM [9]: 18.1%; inhibition at 0.37037 µM [11]: 36.6%
O=C(COc1ccccc1-c1ccnn1-c1ccccc1)NN=Cc1coc2ccc(Cl)cc2c1=O [Compound 11]	-0.64% and -0.50%	-10.49% and -4.61%	-7.80% and -6.47%	2.76% and 2.77%	5.64% and 5.65%	2.54%	6.34% and 2.72%	14.05% and 16.10%	–	22.86% and 21.57%	–	38.49% and 39.53%	–	–	> 10	–
CCN1CCN(C(=O)c2cnc(Nc3ncc(F)c(-c4ccc5ncsc5c4)n3)nc2)CC1 [Compound 22]	-2.89%	–	2.13%	–	–	26.76%	–	58.80%	58.5	75.98%	76.2	87.41%	87.2	–	–	inhibition at 0.00152416 µM [19]: 0.87%; inhibition at 0.00457247 µM [3]: 2.31%; inhibition at 0.0137174 µM [5]: 3.91%; inhibition at 0.0411523 µM [7]: 13.2%; inhibition at 0.123457 µM [9]: 25%; inhibition at 0.37037 µM [11]: 35.1%; IC50 (read-out: DYRK2 IC50): 0.697 µM
Cc1ccccc1C1C=C(c2ccccc2)OC(c2ccccc2)=C1C=NCCc1c[nH]c2ccccc12 (centres unmarked) [Compound 2]	-5.36% and -2.56%	-6.00% and -8.80%	-4.71% and -7.51%	3.44% and 4.28%	3.20% and 5.16%	5.94% and 3.15%	4.61% and 6.29%	5.16% and 2.64%	–	1.41% and 4.21%	–	9.74% and 12.54%	–	–	> 10	–
CC(C)N1CCN(C(=O)c2ccc(Nc3ncc(F)c(-c4ccc5nc(N(C)C)sc5c4)n3)nc2)CC1 [Compound 25]	4.24% and 12.86%	17.49%	28.06%	45.74%	67.90%	84.14%	92.83%	95.77%	98	95.36%	94.3	95.58%	96.2	further improved DYRK2 inhibitory activity	–	inhibition at 0.00152416 µM [19]: 14%; inhibition at 0.00457247 µM [3]: 27.4%; inhibition at 0.0137174 µM [5]: 44.6%; inhibition at 0.0411523 µM [7]: 69.6%; inhibition at 0.123457 µM [9]: 84.5%; inhibition at 0.37037 µM [11]: 93.3%
CC(C)Cc1nc(N2CCN(CC(=O)NCc3ccco3)CC2)c(C#N)c2c1COC(C)(C)C2 [Compound 14]	0.98% and 2.97%	13.91% and 15.64%	3.50% and 5.44%	7.06% and 8.93%	12.96% and 14.71%	25.38% and 26.88%	22.08% and 23.65%	26.44% and 27.92%	–	22.42% and 24.14%	–	27.65% and 29.11%	–	–	> 10	–
Cn1c(=O)c2ncn(CC(=O)Nc3ccc4oc(-c5ccc(Cl)cc5Cl)nc4c3)c2n(C)c1=O [Compound 10]	-7.03% and -8.01%	-4.24% and -5.18%	-3.26% and -1.51%	-9.75% and -7.91%	-10.96% and -9.20%	0.34% and -3.30%	1.49% and 3.01%	15.95% and 17.31%	–	6.96% and 8.47%	–	22.24% and 25.76%	–	–	> 10	–
CCN1CCN(C(=O)c2ccc(Nc3ncc(F)c(-c4ccc5nc(N(C)C)sc5c4)n3)nc2)CC1 [Compound 26 (YK-2-69)]	–	–	–	–	–	–	–	–	–	–	–	–	–	–	–	% Inhibition (DYRK2 kinase, Conc. 0.000762079 µM, duplicate values): 2.89% and 7.10%; % Inhibition (DYRK2 kinase, Conc. 0.00228624 µM, duplicate values): 21.49%; inhibition at 0.00228624 µM (DYRK2 kinase, Conc. 0.00228624 µM, duplicate values, read-out: % Inhibition): 26.1%; % Inhibition (DYRK2 kinase, Conc. 0.00685871 µM, duplicate values): 46.13%; inhibition at 0.00685871 µM (DYRK2 kinase, Conc. 0.00685871 µM, duplicate values, read-out: % Inhibition): 53%; % Inhibition (DYRK2 kinase, Conc. 0.0205761 µM, duplicate values): 59.65%; inhibition at 0.0205761 µM (DYRK2 kinase, Conc. 0.0205761 µM, duplicate values, read-out: % Inhibition): 65.2%; % Inhibition (DYRK2 kinase, Conc. 0.0617284 µM, duplicate values): 82.13%; inhibition at 0.0617284 µM (DYRK2 kinase, Conc. 0.0617284 µM, duplicate values, read-out: % Inhibition): 82.1%; % Inhibition (DYRK2 kinase, Conc. 0.185185 µM, duplicate values): 93.18%; inhibition at 0.185185 µM (DYRK2 kinase, Conc. 0.185185 µM, duplicate values, read-out: % Inhibition): 94.1%; % Inhibition (DYRK2 kinase, Conc. 0.555556 µM, duplicate values): 96.77%; inhibition at 0.555556 µM (DYRK2 kinase, Conc. 0.555556 µM, duplicate values, read-out: % Inhibition): 96.8%; % Inhibition [20]: 98.11%; inhibition at 1.66667 µM [20]: 97.3%; % Inhibition (DYRK2 kinase, Conc. 5 µM, duplicate values): 97.16%; inhibition at 5 µM (DYRK2 kinase, Conc. 5 µM, duplicate values, read-out: % Inhibition): 97.8%
CCN1CCN(C(=O)c2ccc(Nc3nc(-c4ccc5nc(N(C)C)sc5c4)c4sccc4n3)nc2)CC1 [Compound 27]	-2.37% and 0.19%	1.48%	3.31% and -4.82%	5.42% and 2.62%	-2.71% and -6.99%	2.56% and -2.91%	3.14% and 0.34%	-1.20% and -1.05%	–	2.76%	2.35	7.55%	7.66	no inhibition	–	inhibition at 0.00152416 µM [19]: 1.6%
CCN1CCN(Cc2ccc(Nc3ncc(F)c(-c4cnc5ccnn5c4)n3)nc2)CC1 [Compound 19]	-1.87% and -5.39%	-4.33% and -7.82%	-8.64% and -11.90%	-12.62% and -14.01%	-8.54% and -12.22%	0.35% and 0.01%	1.52% and -0.10%	6.04%	8.33	1.80% and -0.24%	–	26.16%	28	significantly decreased	–	–
Cc1ccc(CN(Cc2ccc(C=NNC(=O)c3c(C)nc4sccn34)o2)S(=O)(=O)c2ccc(C)cc2)cc1 [Compound 7]	-2.50% and -2.39%	-0.71% and 1.61%	3.49% and 3.33%	5.71% and 7.69%	-2.86% and -2.73%	2.70% and 2.58%	3.31% and 5.45%	-1.26% and -1.20%	–	2.47% and 2.36%	–	8.07% and 7.70%	–	–	> 10	–
CCOC(=O)CC1=NN(c2ccccc2)C(=O)C1=c1sc(=C2Sc3ccccc3N2C)c(=O)n1CC [Compound 6]	-4.08% and 2.50%	1.60% and 6.11%	3.31% and 7.66%	5.42% and 7.24%	-2.71% and 2.20%	2.56% and 6.98%	3.14% and 5.17%	-1.20% and 3.57%	–	2.35% and 4.46%	–	7.66% and 11.60%	–	–	> 10	–
